Measurements published in the supplement of paper PMC10784567.
± gives the standard deviation of the averaged measurements.

compound: C=C1C[C@H]2C=Nc3cc(OCCCCCOc4cc5c(cc4OC)C(=O)N4CC(=C)C[C@H]4C=N5)c(OC)cc3C(=O)N2C1 [SG2057]; test: absolute IC50 (cell viability, CellTiter-Glo); higher = less potent; conditions: treatment time: 3 days
Procedure: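 Large cancer cell line panel screens in 384-well plates. Cells were treated for 3 days with a 9-point dose titration of the free PBD dimer SG2057; viability was read with CellTiter-Glo. Absolute IC50 came from a four-parameter Hill fit normalised to the median of vehicle (DMSO) wells. Several independent screens (projects) per cell line are averaged; values in µM, lowest-dose floor about 1.524e-5 µM.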

Point of comparison: CL-11, “absolute IC50” value 21.7 nM. Against it:
- VMRC-LCD — 5.1-fold lower, 4.27 nM
- NJG — 140-fold lower, 0.151 nM
- SNU-620 — 9.4-fold lower, 2.3 ± 3.1 nM
- COLO 818 — 6.4-fold lower, 3.37 ± 4.1 nM
- KINGS-1 — 7.9-fold lower, 2.75 nM
- 1624-17082 (Tumor A) — 24-fold lower, 0.887 nM
- PE/CA-PJ15 — 100-fold lower, 0.216 nM
- PL-21 — 16-fold lower, 1.38 ± 1.2 nM
- COV434 — 120-fold lower, 0.188 ± 0.19 nM
- ONCO-DG-1 — 16-fold lower, 1.36 ± 2.2 nM
- DOV 13 — 90-fold lower, 0.241 ± 0.31 nM
- SU-DHL-6 — 40-fold lower, 0.536 ± 0.73 nM
- RT4 — 9.2-fold lower, 2.35 nM
- UM-UC-1 — 39-fold lower, 0.557 nM
- 66c14 — 30-fold lower, 0.725 nM
- 59M — 15-fold lower, 1.47 nM
- OVCAR-4 — 16-fold lower, 1.33 ± 0.49 nM
- CFPAC-1 — 41-fold lower, 0.526 ± 0.55 nM
- HCC2218 — 19-fold lower, 1.16 nM
- SJSA-1 — 230-fold lower, 0.0954 nM
- LTPA — 15-fold lower, 1.46 nM
- NCI-H650 — 7.3-fold lower, 2.97 ± 3.3 nM
- MeWo — 20-fold lower, 1.08 ± 0.37 nM
- KYSE-270 — 53-fold lower, 0.409 nM
- KMS-26 — 260-fold lower, 0.0823 ± 0.024 nM
- SW 403 — 6-fold lower, 3.64 ± 1.6 nM
- CAMA-1 — 4.3-fold lower, 5.02 nM
- NB(TU)1-10 — 36-fold lower, 0.604 nM
- HT-1080 — 38-fold lower, 0.569 ± 0.14 nM
- IM-95m — 6.3-fold lower, 3.43 nM
- GCH-nu-YS — 90-fold lower, 0.242 nM
- LN-18 — 9.9-fold lower, 2.2 ± 1.4 nM
- SNU-387 — 3.8-fold lower, 5.76 nM
- JHH-5 — 88-fold lower, 0.248 nM
- U266B1 — 8.2-fold lower, 2.64 ± 2.4 nM
- DLD-1 — 21-fold lower, 1.01 ± 0.81 nM
- Panc 02.03 — 8.6-fold lower, 2.51 ± 3.8 nM
- DAN-G — 31-fold lower, 0.694 ± 0.32 nM
- BOKU — 84-fold lower, 0.258 nM
- KR7110 — 16-fold lower, 1.36 nM
- KPP-1 (KPP-PDAC) XENOGRAFT — 130-fold lower, 0.168 nM
- SUM 52PE — 8.3-fold lower, 2.62 ± 1.5 nM
- Capan-2 — 5-fold lower, 4.33 ± 0.82 nM
- NCI-H2444 — 4-fold lower, 5.49 nM
- COLO 206F — 8.5-fold lower, 2.54 ± 2.5 nM
- MCF 10A PTEN -/- (Sigma) — 8.5-fold lower, 2.54 nM
- LS1034 — 3.8-fold lower, 5.72 nM
- Calu-3 — 14-fold lower, 1.55 ± 0.058 nM
- 8505C — 36-fold lower, 0.595 nM
- KARPAS-1106P — 140-fold lower, 0.158 ± 0.045 nM
- KARPAS-299 — 37-fold lower, 0.581 ± 1.1 nM
- NCI-H1581 — 25-fold lower, 0.852 ± 0.72 nM
- Detroit 562 — 12-fold lower, 1.79 ± 2.6 nM
- HCC-15 — 9.2-fold lower, 2.35 ± 3.1 nM
- RMUG-S — 11-fold lower, 1.92 ± 0.051 nM
- KPR3070 — 16-fold lower, 1.35 nM
- Toledo — 78-fold lower, 0.279 ± 0.28 nM
- NCI-H920 — 2.4-fold lower, 9.13 nM
- HCC366 — 4.7-fold lower, 4.65 nM
- NCI-H2023 — 150-fold lower, 0.142 ± 0.27 nM
- BE(2)-M17 — 44-fold lower, 0.494 nM
- NCI-H2803 — 5.6-fold lower, 3.86 nM
- NCI-H2452 — 7.4-fold lower, 2.95 ± 3 nM
- NCI-H2731 — 17-fold lower, 1.29 ± 1.9 nM
- A-673 — 330-fold lower, 0.0661 nM
- G28T — 22-fold lower, 0.984 ± 1 nM
- JHH-7 — 11-fold lower, 1.94 nM
- KMRC-1 — 17-fold lower, 1.26 nM
- IGR-39 — 220-fold lower, 0.0981 ± 0.02 nM
- CoCM-1 — 1.6-fold lower, 13.5 nM
- COLO 320HSR — 11-fold lower, 1.9 nM
- KP-2 — 5.2-fold lower, 4.15 nM
- FaDu — 62-fold lower, 0.35 nM
- OE19 — 9.7-fold lower, 2.23 nM
- TRAMP-C1 — 63-fold lower, 0.345 nM
- COLO 320DM — within 1.5-fold, 20.2 nM
- SW 837 — 5.4-fold lower, 4.01 ± 0.21 nM
- OV-90 — 10-fold lower, 2.13 ± 1.3 nM
- MPC-11 — 95-fold lower, 0.229 nM
- NCI-H2106 — 16-fold lower, 1.36 ± 0.71 nM
- OCI-M2 — 79-fold lower, 0.275 ± 0.0079 nM
- HCC3335 — 14-fold lower, 1.59 nM
- Hs 895.T — 2.9-fold lower, 7.53 nM
- BFTC-909 — 32-fold lower, 0.681 nM
- COV504 — 5.8-fold lower, 3.76 ± 4 nM
- SISO — 140-fold lower, 0.153 nM
- HCC44 — 28-fold lower, 0.762 ± 0.59 nM
- A549 — 23-fold lower, 0.926 ± 1.4 nM
- HCC1319 — 1.7-fold lower, 12.8 nM
- HLF — 43-fold lower, 0.503 ± 0.72 nM
- SBC-7 — 41-fold lower, 0.53 nM
- SKG-IIIb — 12-fold lower, 1.79 nM
- HCC2885 — 27-fold lower, 0.801 nM
- BEN — 2-fold higher, 43.1 nM
- NCI-H2009 — 20-fold lower, 1.1 ± 0.98 nM
- KPP14449 — 14-fold lower, 1.53 nM
- HCC4011 — 5.2-fold lower, 4.15 ± 4.6 nM
- HUP-T3 — 34-fold lower, 0.645 ± 0.72 nM
- MCF 10A CDH1 -/- (Sigma) — 8.6-fold lower, 2.53 nM
- C2BBe1 — 3-fold lower, 7.31 ± 3.8 nM
- HCC2935 — 4.1-fold lower, 5.29 ± 3.4 nM
- OCI-M1 — 96-fold lower, 0.227 ± 0.13 nM
- RERF-LC-KJ — 13-fold lower, 1.65 ± 2.5 nM
- COLO 824 — 110-fold lower, 0.192 nM
- COLO 678 — 3.8-fold lower, 5.65 ± 4.5 nM
- NCI-H661 — 12-fold lower, 1.78 ± 3.4 nM
- RC-K8 — 33-fold lower, 0.667 ± 1 nM
- VMRC-RCW — 5.8-fold lower, 3.72 nM
- OVCAR433 — 47-fold lower, 0.462 ± 0.47 nM
- MS751 — 32-fold lower, 0.683 nM
- HCC597 — 3.6-fold lower, 6.01 nM
- SCLC-21H — 28-fold lower, 0.788 nM
- COLO 680N — 36-fold lower, 0.602 nM
- Panc 10.05 — 57-fold lower, 0.383 ± 0.11 nM
- G111 — 100-fold lower, 0.208 ± 0.22 nM
- NCI-H1838 — 9.4-fold lower, 2.32 ± 2.8 nM
- MG-63 — 76-fold lower, 0.284 nM
- SNG-M — 76-fold lower, 0.285 ± 0.16 nM
- OCUM-1 — 41-fold lower, 0.529 ± 0.32 nM
- COR-L88 — 3.7-fold lower, 5.79 nM
- ASH-3 — 23-fold lower, 0.925 nM
- G96 — 37-fold lower, 0.588 nM
- NCI-H460 — 90-fold lower, 0.242 ± 0.2 nM
- HEC-108 — 15-fold lower, 1.42 nM
- SF268 — 51-fold lower, 0.424 ± 0.77 nM
- HeLa — 12-fold lower, 1.8 nM
- HCC1428 — 3.6-fold lower, 6.01 ± 0.31 nM
- K-562 — 35-fold lower, 0.617 ± 0.68 nM
- TK-10 — 8-fold lower, 2.7 ± 2.1 nM
- HEC-265 — 39-fold lower, 0.555 nM
- MAVER-1 — 230-fold lower, 0.0955 ± 0.065 nM
- CT26.WT — 4.1-fold lower, 5.3 nM
- OAW28 — 4.1-fold lower, 5.25 nM
- GOTOP3 — 100-fold lower, 0.217 nM
- G124 — 8.5-fold lower, 2.54 nM
- HCC1493 — 53-fold lower, 0.412 ± 0.72 nM
- OPM-2 — 13-fold lower, 1.63 ± 1.2 nM
- COV362.4 — 4.7-fold lower, 4.61 ± 1.7 nM
- HEC-251 — 17-fold lower, 1.28 nM
- HCC1623 — 4.1-fold lower, 5.3 nM
- Hs 294T — 46-fold lower, 0.469 ± 0.75 nM
- 4T1 Luciferase — 7.2-fold lower, 3.01 nM
- NCI-H2110 — 73-fold lower, 0.296 ± 0.18 nM
- KM-12 — 5.9-fold lower, 3.65 nM
- KLE — 1.8-fold lower, 12.1 ± 8.9 nM
- 1624-17095 (Tumor B) — 3.9-fold lower, 5.51 nM
- NCI-H1703 — 60-fold lower, 0.36 ± 0.39 nM
- EFM-192A — 18-fold lower, 1.2 nM
- JJ012 — 3.4-fold lower, 6.35 nM
- BICR 10 — 52-fold lower, 0.421 nM
- LCLC-97TM1 — 16-fold lower, 1.4 nM
- KYSE-450 — 38-fold lower, 0.564 nM
- 4498-16820 Mel-BR1 X1 — 24-fold lower, 0.911 nM
- MCF 10A AKT2 -/- (Sigma) — 10-fold lower, 2.14 nM
- KMS-21BM — 83-fold lower, 0.26 ± 0.051 nM
- NCI-H520 — 5.4-fold lower, 4.03 ± 2.5 nM
- RKO-E6 — 16-fold lower, 1.32 ± 2.1 nM
- HCA-7 — 11-fold lower, 2.01 ± 1.7 nM
- NCI-H727 — 3.2-fold lower, 6.75 nM
- SiHa — 14-fold lower, 1.56 nM
- Hs 839.T — 3.2-fold lower, 6.79 nM
- PEO1 — 40-fold lower, 0.538 ± 0.19 nM
- SK-N-SH — 190-fold lower, 0.114 nM
- 105KC (DODx) — 6.1-fold lower, 3.56 nM
- KMS-27 — 130-fold lower, 0.164 ± 0.0027 nM
- SW 480 — 47-fold lower, 0.462 ± 0.51 nM
- NCI-H1155 — 98-fold lower, 0.221 ± 0.2 nM
- RVH-421 — 38-fold lower, 0.569 nM
- SK-MEL-1 — 20-fold lower, 1.11 ± 0.28 nM
- NCI-H820 — 15-fold lower, 1.48 nM
- SNU-668 — 38-fold lower, 0.573 nM
- KYSE-520 — 21-fold lower, 1.01 nM
- Hep 3B2.1-7 — 5.7-fold lower, 3.83 ± 2.6 nM
- Li-7 — 4.8-fold lower, 4.51 nM
- CAL-120 — 11-fold lower, 2.01 ± 2.9 nM
- NCI-H1930 — 630-fold lower, 0.0346 nM
- TYK-nu — 190-fold lower, 0.113 ± 0.18 nM
- SNU-182 — 16-fold lower, 1.36 ± 1.5 nM
- SM1 — 49-fold lower, 0.444 nM
- Panc 08.13 — 8-fold lower, 2.7 nM
- PAN 02 — 16-fold lower, 1.39 nM
- U-2 OS — 41-fold lower, 0.53 nM
- MFM-223 — 29-fold lower, 0.743 ± 0.14 nM
- Pfeiffer — 18-fold lower, 1.21 ± 2 nM
- SIMA — 25-fold lower, 0.863 nM
- RPMI 2650 — 40-fold lower, 0.539 ± 0.27 nM
